In data set [1] the test system is C. elegans strain CL4176 (human Aβ42, heat-inducible). The experiment in a line: Paralysis assay in C. elegans CL4176. The data set is classed as in vivo, Caenorhabditis elegans. Conditions: synthetic AβC5-34 10 μM, AβC5-116 5 μM; temperature up-shift. On the procedure: (§1) We followed standard procedures for C. elegans strains maintenance at 16° C. The following strains were used: CL2179: dvIs179 [myo-3p::GFP::3′UTR(long)+rol-6(su1006)] (available on the world wide web at: cgc.cbs.umn.edu/strain.php?id=26134); CL2331: dvIs37 [myo-3p::GFP::Aβ(3-42)+rol-6(su1006)] (available on the world wide web at: cgc.cbs.umn.edu/strain.php?id=26135); CL4176: smg-1(cc546) I; dvIs27 [myo-3::Aβ(1-42)-let 3′UTR(pAF29); pRF4 (rol-6(su1006)] (available on the world wide web at: cgc.cbs.umn.edu/strain.php?id=7663).
For treatments with synthetic cyclic peptides, nematodes were exposed to the indicated AβC5-34 and AβC5-116 concentrations per NGM plate. Stock solutions of the two chemically synthesized pure peptides were obtained after dissolution in DMSO and stored at −20° C. The appropriate amount of compound or DMSO (control cultures) was added onto an E. coli OP50 bacterial lawn. […] Treatment and control plates were handled, scored and assayed in parallel.
Synchronized CL4176 animals (150-300 animals per condition) were transferred to NGM plates containing synthetic AβC5-34, AβC5-116 or 0.26% DMSO at 16° C. for 48 h before transgene induction via temperature up-shift to 25° C. […] Treatment and control plates were handled, scored and assayed in parallel. […] Nematodes were scored as paralyzed upon failure to move their half end-body upon prodding. […]

In data set [2] the test system is C. elegans strain CL2331 (Aβ3-42-GFP). The experiment in a line: Confocal microscopy of Aβ3-42-GFP deposits in C. elegans CL2331. The data set is classed as in vivo, Caenorhabditis elegans. The settings on record: 10 μM AβC5-34 or 5 μM AβC5-116. On the procedure:
as §1
For Aβ3-42 deposit measurements, synchronized (at the L4 larval stage) CL2331 and CL2179 (control strain) animals exposed to solvent (0.26% DMSO), 10 μM AβC5-34 or 5 μM AβC5-116 and grown at 20° C. (to induce aggregation) until day 2 of adulthood were collected. Animals were mounted onto 2% agarose pads on glass slides, anesthetized with 10 mM levamisole and observed at RT using a Leica TCS SPE confocal laser scanning microscope (Leica Lasertechnik GmbH, Germany). The LAS AF software was used for image acquisition. At least twenty animals/condition in three independent experiments were processed. Images of whole worms and focused images in the posterior area of nematodes were acquired with 10×0.45 and 20×0.70 numerical aperture, respectively.

Data set [3] has as its system primary mouse hippocampal neurons. The experiment in a line: MTT cell viability in primary hippocampal neurons. The data set is classed as cell-based. Conditions: for neurotoxicity of Aβ40: 1 μM Aβ40, 1:1 and 2:1 peptides:Aβ; for neurotoxicity of Aβ40 / neurotoxicity of Aβ42: 24 h, MTT; for neurotoxicity of Aβ42: 1 μM Aβ42, 1:1 and 2:1 peptides:Aβ; for growth-promoting effects or cytotoxicity of peptide on its own: peptide alone, no Aβ. On the procedure: The media/agents for primary neuronal cell cultures were purchased from Thermo Fisher Scientific (USA). Hippocampal neuronal cultures were obtained from postnatal day 1 female pups of C57BL/6 mice. Briefly, after being dissected, the hippocampus was incubated with 0.25% trypsin for 15 min at 37° C. The hippocampi were then rinsed in 10 mL of Hibernate containing 10% (v/v) heat-inactivated fetal bovine serum (FBS). Cultures were maintained in Neurobasal-A medium containing 2% B-27 supplement, 0.5 mM Gluta-MAX and 1% penicillin/streptomycin at 37° C. and 5% CO2. Half of the medium was replaced twice a week. Neuronal hippocampal cells were plated at a density of approximately 2×10^4 per well in 96-well plates and 5×10^5 per well in 24-well plates for MTT and induced cell death assays, respectively. After seven days of incubation in culture well plates, the primary hippocampal neurons were used for the cell viability measurements.
Solutions of synthetic Aβ40 or Aβ42 (10 μM) in PBS, preincubated at 37° C. (3 d for Aβ40 solutions and 1 d for Aβ42 solutions) in the presence or absence of synthetic cyclic peptides (1:1 and 2:1 ratio of peptides:Aβ), were diluted with fresh medium and transferred into wells at a 1 μM final Aβ concentration. Cell viability was determined using the MTT assay. MTT (3-[4,5-dimethylthiazol-2-yl]-2,5-diphenyl tetrazolium bromide) was purchased from Applichem (Germany). After 24 h of exposure to Aβ solutions, 100 μL of a 0.5 mg/mL stock solution of MTT in Neurobasal-A was added to each well of primary hippocampal neurons followed by a 3 h incubation at 37° C., while 100 μL of a 1 mg/mL stock solution of MTT in DMEM complete medium was added to each well of U87MG cells followed by a 4 h incubation at 37° C. The medium was then removed and the cells were diluted in DMSO. The relative formazan concentration was measured by determination of the absorbance at 540 nm using a plate reader (Tecan, Austria). Results were expressed as the percentage of MTT reduction, assuming that the absorbance of control (untreated) cells was 100%, and represent the mean of three independent experiments with six replicate wells for each condition. Induced cell death was also qualitatively examined by phase-contrast microscopy (Carl Zeiss, Axiovert 25 CFL, Germany) using the above solutions. In each run, the effect of solutions of plain synthetic peptides and plain Aβ40 or Aβ42 was independently checked to serve as internal control.

Structures are written as SMILES. Where a SMILES comes first, the peptide text is derived from it.

Regarding `C[C@@H]1NC(=O)[C@H](CO)NC(=O)[C@H]([C@@H](C)O)NC(=O)[C@@H]2CCCN2C(=O)[C@H](CO)NC1=O` [AβC5-34, cyclo-SASPT] (cyclo(ASPTS)), the “appearance of paralysis phenotype, CL4176” value in data set [1] is recorded as “significant delay”. The “Aβ deposits, CL2331” value in data set [2] is recorded as “significant reduction of Aβ deposits”. Besides, in data set [3], the “neurotoxicity of Aβ40” value is “markedly inhibit the neurotoxicity”, the “neurotoxicity of Aβ42” value is reported as “markedly inhibit the neurotoxicity” and the “growth-promoting effects or cytotoxicity of peptide on its own” value is on record as “did not exhibit general growth-promoting effects or considerable cytotoxicity”.

As to `C[C@@H]1NC(=O)[C@H]([C@@H](C)O)NC(=O)[C@H](CCCNC(=N)N)NC(=O)[C@H](CC(=O)O)NC(=O)[C@H](Cc2ccccc2)NC1=O` [AβC5-116, cyclo-TAFDR] (cyclo(AFDRT)), in data set [1], the “appearance of paralysis phenotype, CL4176” value was “significant delay”. For the same compound, the “Aβ deposits, CL2331” value in data set [2] is “significant reduction of Aβ deposits”. For the same compound, in data set [3], the “neurotoxicity of Aβ40” value was “markedly inhibit the neurotoxicity”, the “neurotoxicity of Aβ42” value is given as “markedly inhibit the neurotoxicity” and the “growth-promoting effects or cytotoxicity of peptide on its own” value is listed as “did not exhibit general growth-promoting effects or considerable cytotoxicity”.

Source of the values: US12559863B2, “Macrocyclic modulators of disease associated protein misfolding and aggregation” (RESQ BIOTECH, priority 2017, dated 2026).
